# Ends that are not written are not given here. amino resin = not defined here; spacer = not defined here
# Key:
# [1] = target: alpha-1-proteinase inhibitor (API) (Homo sapiens, UniProt P01009); type: binding
# PPV [2] = type: binding, porcine parvovirus
# SV40 = type: binding, simian virus 40
# Polio Virus = type: binding, poliovirus
# PRV [3] = type: binding, pseudorabies virus; conditions: peptide resin
# HIV = type: binding, human immunodeficiency virus
# HAV [4] = type: binding, hepatitis A virus
# BVDV = type: binding, bovine viral diarrhea virus
# HAV [5] = type: binding, hepatitis A virus; remark: listed apart in the source
# PRV [6] = type: binding, pseudorabies virus
# PPV [7] = type: binding, porcine parvovirus; remark: listed apart in the source
# Chain of alpha-1-proteinase inhibitor (API) (P01009 25-418): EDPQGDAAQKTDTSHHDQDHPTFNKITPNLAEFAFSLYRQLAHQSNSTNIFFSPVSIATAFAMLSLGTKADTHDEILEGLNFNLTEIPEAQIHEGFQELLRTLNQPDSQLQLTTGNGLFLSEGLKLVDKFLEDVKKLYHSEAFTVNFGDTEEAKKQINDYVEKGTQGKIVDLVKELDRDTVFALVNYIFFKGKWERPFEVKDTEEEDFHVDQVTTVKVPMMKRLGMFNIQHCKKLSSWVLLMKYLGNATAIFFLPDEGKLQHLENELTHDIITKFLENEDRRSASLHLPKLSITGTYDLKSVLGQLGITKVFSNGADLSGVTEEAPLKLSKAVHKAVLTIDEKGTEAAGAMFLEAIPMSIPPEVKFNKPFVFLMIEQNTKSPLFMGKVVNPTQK
substance,measurement,setting,value
APPRTV: Table 2 sample 5,binding to API,[1],API-binding
AQTFHD: Table 2 sample 1,binding to API,[1],API-binding
Acetyl-FLLPYK: N-acetylated FLLPYK on resin (Ac-FLLPYK),logs reduction (clearance) of PPV in column flow-through,PPV [2],no clearance
FLLFQP: Table 1 sample 5,"Screen (positive bead, ligand identified for virus)",SV40,SV40
FLLIDA: Table 1 sample 8,"Screen (positive bead, ligand identified for virus)",Polio Virus,Polio
FLLPYK: consensus peptide synthesized onto amino resin with a spacer at the carboxy terminal (FLLPYK-{spacer-amino resin}; not fully specified; reading uncertain),binds PRV,PRV [3],binds
same,binds HIV,HIV,binds
same,binds HAV,HAV [4],binds
same,binds BVDV,BVDV,binds
same,logs reduction (clearance) of PPV in column flow-through,PPV [2],five
FLLYAK: also Table 4 sample 46,binds HAV (sequences that bind to all three viruses),HAV [5],bind
same,binds PRV (sequences that bind to all three viruses),PRV [6],bind
same,binds PPV (sequences that bind to all three viruses),PPV [7],bind
LKRIEY: Table 2 sample 3,binding to API,[1],API-binding
NFZQNT: Table 2 sample 7,binding to API,[1],API-binding
RDYDTD: Table 2 sample 2,binding to API,[1],API-binding
SDLRRL: Table 2 sample 4,binding to API,[1],API-binding
SKNNAA: Table 2 sample 8,binding to API,[1],API-binding
VLYTNN: Table 2 sample 6,binding to API,[1],API-binding
amino-FLLP: truncated peptide on resin (on resin),logs reduction (clearance) of PPV in column flow-through,PPV [2],no significant clearance

# Source: patent US20020155106A1 (priority 2000, published 2002)
